Experimental data from the supplement of paper PMC10307832.

Legend:
Assay in all cases: relative viability (nuclei count vs DMSO), 5 days (fraction); higher = more cells survive
[1] = system: A-427
Method in brief: (§1)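 Relative viability equals treated-well nuclei counts divided by vehicle-well nuclei counts. Counts came from 4× images of lung cancer cell lines grown in 1536-well plates for 5 days after pin-tool dosing on the day after seeding. Dosing used one drug alone or a fixed anchor-drug dose plus five library-drug doses (not always all listed) in √10 steps, and values are medians of duplicate plates.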

[2] = system: ChaGo-K-1
Method in brief: as §1

[3] = system: EKVX
Method in brief: as §1

[4] = system: H3255
Method in brief: as §1

[5] = system: NCI-H1355
Method in brief: as §1

[6] = system: NCI-H1650
Method in brief: as §1

[7] = system: NCI-H1666
Method in brief: as §1

[8] = system: NCI-H1755
Method in brief: as §1

[9] = system: NCI-H2085
Method in brief: as §1

[10] = system: NCI-H2228
Method in brief: as §1

[11] = system: NCI-H2347
Method in brief: as §1

[12] = system: NCI-H3122
Method in brief: as §1

[13] = system: NCI-H322M
Method in brief: as §1

[14] = system: NCI-H441
Method in brief: as §1

[15] = system: NCI-H460
Method in brief: as §1

[16] = system: NCI-H520
Method in brief: as §1

[17] = system: NCI-H596
Method in brief: as §1

[18] = system: NCI-H650
Method in brief: as §1

[19] = system: NCI-H838
Method in brief: as §1

[20] = system: SW 1573
Method in brief: as §1

Work on `O=c1[nH]c2ccccc2n1C1CCN(CCCC(c2ccc(F)cc2)c2ccc(F)cc2)CC1` [Pimozide] + CC(C)C[C@H](NC(=O)[C@H](Cc1ccccc1)NC(=O)c1cnccn1)B(O)O [Bortezomib] (partner 0.002 µM) yielded a relative viability ([1]; first compound 0.08 µM) of 0.947, a relative viability ([1]; first compound 0.253 µM) of 0.965 and a relative viability ([1]; first compound 0.8 µM) of 0.965. The relative viability ([1]; first compound 2.53 µM) was 0.956, the relative viability ([1]; first compound 8 µM) was 0.903 and the relative viability ([2]; first compound 0.08 µM) was 1.01. It also gave a relative viability ([2]; first compound 0.253 µM) of 0.883, a relative viability ([2]; first compound 0.8 µM) of 0.977 and a relative viability ([2]; first compound 2.53 µM) of 1.01. The relative viability ([2]; first compound 8 µM) was 0.872, the relative viability ([3]; first compound 0.253 µM) was 1.11 and the relative viability ([3]; first compound 0.8 µM) was 0.992. For the same compound, the relative viability ([3]; first compound 2.53 µM) was 0.994, the relative viability ([3]; first compound 8 µM) was 0.937 and the relative viability ([4]; first compound 0.253 µM) was 0.802. It also gave a relative viability ([4]; first compound 0.8 µM) of 0.732, a relative viability ([4]; first compound 2.53 µM) of 0.759 and a relative viability ([4]; first compound 8 µM) of 0.732. For the same compound, the relative viability ([5]; first compound 0.08 µM) was 1.18, the relative viability ([5]; first compound 0.253 µM) was 1.2 and the relative viability ([5]; first compound 0.8 µM) was 1.05. It also gave a relative viability ([5]; first compound 2.53 µM) of 1.19, a relative viability ([5]; first compound 8 µM) of 1.19 and a relative viability ([6]; first compound 0.08 µM) of 0.23. The relative viability ([6]; first compound 0.253 µM) was 0.204, the relative viability ([6]; first compound 0.8 µM) was 0.188 and the relative viability ([6]; first compound 2.53 µM) was 0.177. For the same compound, the relative viability ([6]; first compound 8 µM) was 0.178, the relative viability ([7]; first compound 0.08 µM) was 0.823 and the relative viability ([7]; first compound 0.253 µM) was 0.744. The relative viability ([7]; first compound 0.8 µM) was 0.761, the relative viability ([7]; first compound 2.53 µM) was 0.7 and the relative viability ([7]; first compound 8 µM) was 0.626. It also gave a relative viability ([8]; first compound 0.08 µM) of 0.881, a relative viability ([8]; first compound 0.253 µM) of 0.91 and a relative viability ([8]; first compound 0.8 µM) of 0.844. The relative viability ([8]; first compound 2.53 µM) was 0.937, the relative viability ([8]; first compound 8 µM) was 0.674 and the relative viability ([9]; first compound 0.08 µM) was 0.972. The relative viability ([9]; first compound 0.253 µM) was 1.01, the relative viability ([9]; first compound 0.8 µM) was 1.04 and the relative viability ([9]; first compound 2.53 µM) was 1.13. It also gave a relative viability ([9]; first compound 8 µM) of 0.741, a relative viability ([10]; first compound 0.08 µM) of 1.11 and a relative viability ([10]; first compound 0.253 µM) of 0.858. For the same compound, the relative viability ([10]; first compound 0.8 µM) was 0.904, the relative viability ([10]; first compound 2.53 µM) was 0.728 and the relative viability ([10]; first compound 8 µM) was 0.559. The relative viability ([11]; first compound 0.08 µM) was 1, the relative viability ([11]; first compound 0.253 µM) was 0.858 and the relative viability ([11]; first compound 0.8 µM) was 0.748. The relative viability ([11]; first compound 2.53 µM) was 0.955, the relative viability ([11]; first compound 8 µM) was 0.883 and the relative viability ([12]; first compound 0.08 µM) was 0.983. For the same compound, the relative viability ([12]; first compound 0.253 µM) was 0.959, the relative viability ([12]; first compound 0.8 µM) was 1.01 and the relative viability ([12]; first compound 2.53 µM) was 0.981. For the same compound, the relative viability ([12]; first compound 8 µM) was 1.01, the relative viability ([13]; first compound 0.253 µM) was 1.26 and the relative viability ([13]; first compound 0.8 µM) was 1.18. The relative viability ([13]; first compound 2.53 µM) was 1.16, the relative viability ([13]; first compound 8 µM) was 1.09 and the relative viability ([14]; first compound 0.08 µM) was 0.692. For the same compound, the relative viability ([14]; first compound 0.253 µM) was 0.366, the relative viability ([14]; first compound 0.8 µM) was 0.325 and the relative viability ([14]; first compound 2.53 µM) was 0.451. For the same compound, the relative viability ([14]; first compound 8 µM) was 0.336, the relative viability ([15]; first compound 0.08 µM) was 1.09 and the relative viability ([15]; first compound 0.253 µM) was 0.933. For the same compound, the relative viability ([15]; first compound 0.8 µM) was 0.992, the relative viability ([15]; first compound 2.53 µM) was 0.993 and the relative viability ([15]; first compound 8 µM) was 1.04. For the same compound, the relative viability ([16]; first compound 0.08 µM) was 0.386, the relative viability ([16]; first compound 0.253 µM) was 0.538 and the relative viability ([16]; first compound 0.8 µM) was 0.556. The relative viability ([16]; first compound 2.53 µM) was 0.437, the relative viability ([16]; first compound 8 µM) was 0.649 and the relative viability ([17]; first compound 0.08 µM) was 0.974. The relative viability ([17]; first compound 0.253 µM) was 0.968, the relative viability ([17]; first compound 0.8 µM) was 1 and the relative viability ([17]; first compound 2.53 µM) was 0.994. For the same compound, the relative viability ([17]; first compound 8 µM) was 0.935, the relative viability ([18]; first compound 0.08 µM) was 0.797 and the relative viability ([18]; first compound 0.253 µM) was 0.787. The relative viability ([18]; first compound 0.8 µM) was 0.704, the relative viability ([18]; first compound 2.53 µM) was 0.718 and the relative viability ([18]; first compound 8 µM) was 0.747. For the same compound, the relative viability ([19]; first compound 0.08 µM) was 0.786, the relative viability ([19]; first compound 0.253 µM) was 0.737 and the relative viability ([19]; first compound 0.8 µM) was 0.786. For the same compound, the relative viability ([19]; first compound 2.53 µM) was 0.745, the relative viability ([19]; first compound 8 µM) was 0.684 and the relative viability ([20]; first compound 0.08 µM) was 1.09. The relative viability ([20]; first compound 0.253 µM) was 1.02, the relative viability ([20]; first compound 0.8 µM) was 0.898 and the relative viability ([20]; first compound 2.53 µM) was 0.894. It also gave a relative viability ([20]; first compound 8 µM) of 0.963.
